From the NIST ThermoML archive (doi:10.1016/j.fluid.2006.05.007)

Test: xn = mol fraction of the nth substance listed
Conditions: Fluid (supercritical or subcritical phases)

CO [methanol] + O
Conditions | mass density [kg/m3]
572.91 K, 10085 kPa, x1 = 0.3044 | 77.4
573.08 K, 10068 kPa, x1 = 0.4031 | 79.4
573.15 K, 10080 kPa, x1 = 0.5144 | 83.3
573.26 K, 10081 kPa, x1 = 0.59 | 85.5
573.31 K, 10076 kPa, x1 = 0.7905 | 92.4
573.34 K, 10081 kPa, x1 = 0.8802 | 94.8
573.35 K, 10077 kPa, x1 = 0.6896 | 87.7
573.43 K, 10083 kPa, x1 = 0.0997 | 405
573.46 K, 11526 kPa, x1 = 0.4031 | 107.2
573.49 K, 10078 kPa, x1 = 0.0494 | 679.2
573.52 K, 11527 kPa, x1 = 0.5144 | 108.7
573.63 K, 11542 kPa, x1 = 0.59 | 111.3
573.67 K, 11523 kPa, x1 = 0.6896 | 113.3
573.72 K, 11537 kPa, x1 = 0.0175 | 704.3
573.74 K, 11532 kPa, x1 = 0.7905 | 115.7
573.74 K, 11535 kPa, x1 = 0.8802 | 118.9
573.75 K, 11533 kPa, x1 = 0.007 | 712.1
573.78 K, 11525 kPa, x1 = 0.0997 | 646.8
573.78 K, 11527 kPa, x1 = 0.1971 | 534.3
573.78 K, 11530 kPa, x1 = 0.1484 | 611.5
573.79 K, 11533 kPa, x1 = 0.0494 | 682.1
574.29 K, 20003 kPa, x1 = 0.0997 | 671.8
574.34 K, 20013 kPa, x1 = 0.3044 | 560.2
574.34 K, 20016 kPa, x1 = 0.6896 | 398.6
574.35 K, 20000 kPa, x1 = 0.0494 | 701.9
574.37 K, 19997 kPa, x1 = 0.1484 | 645.8
574.37 K, 20007 kPa, x1 = 0.59 | 431.4
574.37 K, 20014 kPa, x1 = 0.1971 | 617
574.37 K, 20019 kPa, x1 = 0.4031 | 512.2
574.38 K, 20012 kPa, x1 = 0.7905 | 375.2
574.39 K, 20005 kPa, x1 = 0.5144 | 460.1
574.45 K, 20012 kPa, x1 = 0.8802 | 354.5
588.56 K, 13757 kPa, x1 = 0.3044 | 135.3
588.59 K, 13753 kPa, x1 = 0.5144 | 131.6
588.63 K, 13755 kPa, x1 = 0.4031 | 133
588.68 K, 13752 kPa, x1 = 0.7905 | 137.1
588.69 K, 13759 kPa, x1 = 0.59 | 132.6
588.74 K, 13760 kPa, x1 = 0.6896 | 134.8
588.76 K, 13753 kPa, x1 = 0.1971 | 409.6
588.79 K, 13754 kPa, x1 = 0.8802 | 139.5
588.8 K, 13760 kPa, x1 = 0.1484 | 563.2
588.81 K, 13767 kPa, x1 = 0.007 | 679.9
588.83 K, 13755 kPa, x1 = 0.0997 | 606.6
588.84 K, 13753 kPa, x1 = 0.0175 | 672.4
588.85 K, 13755 kPa, x1 = 0.0494 | 647.6
